Measurements as given in ChEMBL document CHEMBL3217526, “Bioguided discovery and pharmacophore modeling of the mycotoxic indole diterpene alkaloids penitrems as breast cancer proliferation, migration, and invasion inhibitors” (Medchemcomm, 2013).
The source made the active and inactive calls. The rule behind the calls is not given here.

Assays:
[1] = Cytotoxicity against human EKVX cells assessed as growth inhibition at 10 uM; format: functional; conditions: read-out: GI
[2] = test system: SNB-75; test: Cytotoxicity against human SNB75 cells assessed as growth inhibition at 10 uM; format: functional; conditions: read-out: GI
[3] = test system: MDA-MB-231; test: Cytotoxicity against human MDA-MB-231 cells assessed as growth inhibition at 10 uM; format: functional; conditions: read-out: GI
[4] = Cytotoxicity against human UO31 cells assessed as growth inhibition at 10 uM; format: functional; conditions: UO-31, read-out: GI
[5] = test system: SW-620; test: Cytotoxicity against human SW620 cells assessed as growth inhibition at 10 uM; format: functional; conditions: read-out: GI
[6] = test system: SK-MEL-2; test: Cytotoxicity against human SK-MEL-2 cells assessed as growth inhibition at 10 uM; format: functional; conditions: read-out: GI
[7] = test system: SK-OV-3; test: Cytotoxicity against human SKOV3 cells assessed as growth inhibition at 10 uM; format: functional; conditions: read-out: GI
[8] = test system: KM12; test: Cytotoxicity against human KM12 cells assessed as growth inhibition at 10 uM; format: functional; conditions: read-out: GI
[9] = test system: DU-145; test: Cytotoxicity against human DU145 cells assessed as growth inhibition at 10 uM; format: functional; conditions: read-out: GI
[10] = test system: K562; test: Cytotoxicity against human K562 cells assessed as growth inhibition at 10 uM; format: functional; conditions: read-out: GI
[11] = Cytotoxicity against human Hs578T cells assessed as growth inhibition at 10 uM; format: functional; conditions: Hs-578T, read-out: GI
[12] = Cytotoxicity against human OVCAR3 cells assessed as growth inhibition at 10 uM; format: functional; conditions: OVCAR-3, read-out: GI
[13] = test system: A549; test: Cytotoxicity against human A549 cells assessed as growth inhibition at 10 uM; format: functional; conditions: read-out: GI
[14] = Cytotoxicity against human OVCAR8 cells assessed as growth inhibition at 10 uM; format: functional; conditions: OVCAR-8, read-out: GI
[15] = test system: RPMI-8226; test: Cytotoxicity against human RPMI8226 cells assessed as growth inhibition at 10 uM; format: functional; conditions: read-out: GI
[16] = test system: U-251; test: Cytotoxicity against human U251 cells assessed as growth inhibition at 10 uM; format: functional; conditions: read-out: GI
[17] = test system: ACHN; test: Cytotoxicity against human ACHN cells assessed as growth inhibition at 10 uM; format: functional; conditions: read-out: GI
[18] = Cytotoxicity against human UACC257 cells assessed as growth inhibition at 10 uM; format: functional; conditions: UACC-257, read-out: GI
[19] = test system: MDA-MB-231; test: Antiinvasive activity against human MDA-MB-231 cells assessed as inhibition of cell invasion at 15 uM after 24 hrs by BME Cell invasion assay kit; format: functional
[20] = test system: COLO 205; test: Cytotoxicity against human COLO205 cells assessed as growth inhibition at 10 uM; format: functional; conditions: read-out: GI
[21] = test system: M14; test: Cytotoxicity against human M14 cells assessed as growth inhibition at 10 uM; format: functional; conditions: read-out: GI
[22] = test system: MDA-MB-231; test: Antiproliferative activity against human MDA-MB-231 cells after 72 hrs by MTT assay; format: functional, cell-based; conditions: MDA-MB-231, 72 h
[23] = test system: NCI-H23; test: Cytotoxicity against human NCI-H23 cells assessed as growth inhibition at 10 uM; format: functional; conditions: read-out: GI
[24] = test system: HCC 2998; test: Cytotoxicity against human HCC2998 cells assessed as growth inhibition at 10 uM; format: functional; conditions: read-out: GI
[25] = test system: HOP-62; test: Cytotoxicity against human HOP62 cells assessed as growth inhibition at 10 uM; format: functional; conditions: read-out: GI
[26] = test system: Caenorhabditis elegans; test: Toxicity in L1 stage Caenorhabditis elegans N2 assessed as viability and reproduction at 50 uM; format: organism-based; conditions: in vivo
[27] = test system: Malme-3M; test: Cytotoxicity against human MALME-3M cells assessed as growth inhibition at 10 uM; format: functional; conditions: read-out: GI
[28] = Cytotoxicity against human OVCAR5 cells assessed as growth inhibition at 10 uM; format: functional; conditions: OVCAR-5, read-out: GI
[29] = test system: LOX IMVI; test: Cytotoxicity against human LOXIMVI cells assessed as growth inhibition at 10 uM; format: functional; conditions: read-out: GI
[30] = test system: SK-MEL-28; test: Cytotoxicity against human SK-MEL-28 cells assessed as growth inhibition at 10 uM; format: functional; conditions: read-out: GI
[31] = test system: SNB-19; test: Cytotoxicity against human SNB19 cells assessed as growth inhibition at 10 uM; format: functional; conditions: read-out: GI
[32] = test system: T47D; test: Cytotoxicity against human T47D cells assessed as growth inhibition at 10 uM; format: functional; conditions: read-out: GI
[33] = test system: CAKI-1; test: Cytotoxicity against human CAKI-1 cells assessed as growth inhibition at 10 uM; format: functional; conditions: read-out: GI
[34] = test system: SN12C; test: Cytotoxicity against human SN12C cells assessed as growth inhibition at 10 uM; format: functional; conditions: read-out: GI
[35] = test system: MDA-MB-468; test: Cytotoxicity against human MDA-MB-468 cells assessed as growth inhibition at 10 uM; format: functional; conditions: read-out: GI
[36] = test system: Caenorhabditis elegans; test: Toxicity in L1 stage Caenorhabditis elegans N2 assessed as viability and reproduction at 10 uM; format: organism-based; conditions: in vivo
[37] = test system: MDA-MB-435; test: Cytotoxicity against human MDA-MB-435 cells assessed as growth inhibition at 10 uM; format: functional; conditions: read-out: GI
[38] = test system: NCI-H226; test: Cytotoxicity against human NCI-H226 cells assessed as growth inhibition at 10 uM; format: functional; conditions: read-out: GI
[39] = test system: MCF7; test: Antiproliferative activity against human MCF7 cells after 72 hrs by MTT assay; format: functional, cell-based; conditions: MCF7, 72 h
[40] = test system: NCI-H322M; test: Cytotoxicity against human NCI-H322M cells assessed as growth inhibition at 10 uM; format: functional; conditions: read-out: GI
[41] = Cytotoxicity against human OVCAR4 cells assessed as growth inhibition at 10 uM; format: functional; conditions: OVCAR-4, read-out: GI
[42] = test system: HT-29; test: Cytotoxicity against human HT-29 cells assessed as growth inhibition at 10 uM; format: functional; conditions: read-out: GI
[43] = Cytotoxicity against human NCI-ADR-RES cells assessed as growth inhibition at 10 uM; format: functional; conditions: read-out: GI
[44] = Cytotoxicity against human UACC62 cells assessed as growth inhibition at 10 uM; format: functional; conditions: UACC-62, read-out: GI
[45] = test system: NCI-H460; test: Cytotoxicity against human NCI-H460 cells assessed as growth inhibition at 10 uM; format: functional; conditions: read-out: GI
[46] = test system: SR; test: Cytotoxicity against human SR cells assessed as growth inhibition at 10 uM; format: functional; conditions: read-out: GI
[47] = test system: BT-549; test: Cytotoxicity against human BT549 cells assessed as growth inhibition at 10 uM; format: functional; conditions: read-out: GI
[48] = test system: MDA-MB-231; test: Antimigratory activity in human MDA-MB-231 cells after 24 hrs by wound healing assay; format: functional, cell-based; conditions: MDA-MB-231, 24 h
[49] = test system: IGROV-1; test: Cytotoxicity against human IGROV1 cells assessed as growth inhibition at 10 uM; format: functional; conditions: read-out: GI
[50] = test system: SK-MEL-5; test: Cytotoxicity against human SK-MEL-5 cells assessed as growth inhibition at 10 uM; format: functional; conditions: read-out: GI
[51] = test system: HCT-116; test: Cytotoxicity against human HCT116 cells assessed as growth inhibition at 10 uM; format: functional; conditions: read-out: GI
[52] = test system: RXF 393; test: Cytotoxicity against human RXF393 cells assessed as growth inhibition at 10 uM; format: functional; conditions: read-out: GI
[53] = test system: HL-60(TB); test: Cytotoxicity against human HL-60(TB) cells assessed as growth inhibition at 10 uM; format: functional; conditions: read-out: GI
[54] = test system: CCRF-CEM; test: Cytotoxicity against human CCRF-CEM cells assessed as growth inhibition at 10 uM; format: functional; conditions: read-out: GI
[55] = test system: MOLT-4; test: Cytotoxicity against human MOLT4 cells assessed as growth inhibition at 10 uM; format: functional; conditions: read-out: GI
[56] = test system: MCF7; test: Cytotoxicity against human MCF7 cells assessed as growth inhibition at 10 uM; format: functional; conditions: read-out: GI
[57] = test system: PC-3; test: Cytotoxicity against human PC3 cells assessed as growth inhibition at 10 uM; format: functional; conditions: read-out: GI
[58] = test system: NCI-H522; test: Cytotoxicity against human NCI-H522 cells assessed as growth inhibition at 10 uM; format: functional; conditions: read-out: GI
[59] = test system: SF-539; test: Cytotoxicity against human SF539 cells assessed as growth inhibition at 10 uM; format: functional; conditions: read-out: GI
[60] = Cytotoxicity against human HCT15 cells assessed as growth inhibition at 10 uM; format: functional; conditions: HCT-15, read-out: GI
[61] = test system: 786-0; test: Cytotoxicity against human 786-0 cells assessed as growth inhibition at 10 uM; format: functional; conditions: read-out: GI
[62] = test system: TK-10; test: Cytotoxicity against human TK10 cells assessed as growth inhibition at 10 uM; format: functional; conditions: read-out: GI
[63] = test system: SF-268; test: Cytotoxicity against human SF268 cells assessed as growth inhibition at 10 uM; format: functional; conditions: read-out: GI

Structure (SMILES): C=C(C)[C@H]1O[C@H]2CC[C@@]3(C)[C@@](O)(CC[C@H]4[C@@H]5OC(C)(C)[C@H]6C[C@@H]7C(=C)Cc8ccc9[nH]c(c5c9c8[C@@]76O)[C@@]43C)[C@]23O[C@@H]3[C@H]1O
- inhibition of growth at 10 µM [1]: 104%
- inhibition of growth at 10 µM [2]: 84.4%
- inhibition of growth at 10 µM [3]: 101%
- inhibition of growth at 10 µM [4]: 72.5%
- inhibition of growth at 10 µM [5]: 106%
- inhibition of growth at 10 µM [6]: 96.4%
- inhibition of growth at 10 µM [7]: 103%
- inhibition of growth at 10 µM [8]: 110%
- inhibition of growth at 10 µM [9]: 100%
- inhibition of growth at 10 µM [10]: 76.9%
- inhibition of growth at 10 µM [11]: 92.2%
- inhibition of growth at 10 µM [12]: 111%
- inhibition of growth at 10 µM [13]: 92.6%
- inhibition of growth at 10 µM [14]: 96.9%
- inhibition of growth at 10 µM [15]: 72.5%
- inhibition of growth at 10 µM [16]: 99%
- inhibition of growth at 10 µM [17]: 101%
- inhibition of growth at 10 µM [18]: 97.1%
- inhibition [19]: inactive
- inhibition of growth at 10 µM [20]: 106%
- inhibition of growth at 10 µM [21]: 100%
- IC50 [22]: 25.4 µM
- inhibition of growth at 10 µM [23]: 117%
- inhibition of growth at 10 µM [24]: 104%
- inhibition of growth at 10 µM [25]: 99.2%
- Activity [26]: Non-toxic
- inhibition of growth at 10 µM [27]: 98.5%
- inhibition of growth at 10 µM [28]: 115%
- inhibition of growth at 10 µM [29]: 105%
- inhibition of growth at 10 µM [30]: 110%
- inhibition of growth at 10 µM [31]: 101%
- inhibition of growth at 10 µM [32]: 94.8%
- inhibition of growth at 10 µM [33]: 107%
- inhibition of growth at 10 µM [34]: 99.2%
- inhibition of growth at 10 µM [35]: 96.6%
- Activity [36]: Non-toxic
- inhibition of growth at 10 µM [37]: 106%
- inhibition of growth at 10 µM [38]: 98.2%
- IC50 [39]: 17.5 µM
- inhibition of growth at 10 µM [40]: 99.4%
- inhibition of growth at 10 µM [41]: 109%
- inhibition of growth at 10 µM [42]: 90.6%
- inhibition of growth at 10 µM [43]: 109%
- inhibition of growth at 10 µM [44]: 101%
- inhibition of growth at 10 µM [45]: 100%
- inhibition of growth at 10 µM [46]: 91.9%
- inhibition of growth at 10 µM [47]: 101%
- IC50 [48]: 20.3 µM
- inhibition of growth at 10 µM [49]: 89.7%
- inhibition of growth at 10 µM [50]: 104%
- inhibition of growth at 10 µM [51]: 92.4%
- inhibition of growth at 10 µM [52]: 95%
- inhibition of growth at 10 µM [53]: 101%
- inhibition of growth at 10 µM [54]: 68%
- inhibition of growth at 10 µM [55]: 78%
- inhibition of growth at 10 µM [56]: 100%
- inhibition of growth at 10 µM [57]: 82.9%
- inhibition of growth at 10 µM [58]: 86%
- inhibition of growth at 10 µM [59]: 90.7%
- inhibition of growth at 10 µM [60]: 98.9%
- inhibition of growth at 10 µM [61]: 96.2%
- inhibition of growth at 10 µM [62]: 107%
- inhibition of growth at 10 µM [63]: 88.9%
